Measurements as given in the NIST ThermoML archive (doi:10.1016/j.jct.2006.12.012).

Assay: xn = mol fraction of the nth substance listed
Details: 101 kPa, Liquid

C[S+](C)[O-] [dimethyl sulfoxide] + O
Details	mass density, 298.15 K [kg/m3]	mass density, 303.15 K [kg/m3]	mass density, 308.15 K [kg/m3]	mass density, 313.15 K [kg/m3]	mass density, 318.15 K [kg/m3]	viscosity, 298.15 K [mPa·s]	viscosity, 303.15 K [mPa·s]	viscosity, 308.15 K [mPa·s]	viscosity, 313.15 K [mPa·s]	viscosity, 318.15 K [mPa·s]
x1 = 0.0238	1009.5	1007.8	1005.89	1003.79	1001.51	1.033	0.9386	0.8541	0.7751	0.6982
x1 = 0.0489	1021.56	1019.59	1017.38	1015.03	1012.48	1.258	1.148	1.041	0.9371	0.8322
x1 = 0.0796	1034.64	1032.3	1029.76	1027.04	1024.2	1.597	1.454	1.309	1.165	1.02
x1 = 0.1183	1048.91	1046.26	1043.35	1040.22	1036.98	2.067	1.872	1.671	1.471	1.269
x1 = 0.1587	1061.32	1058.32	1055.11	1051.58	1047.91	2.549	2.295	2.036	1.778	1.519
x1 = 0.2036	1072.5	1069.04	1065.5	1061.82	1057.83	3.017	2.704	2.389	2.075	1.761
x1 = 0.2379	1079.21	1075.61	1071.77	1067.99	1063.81	3.301	2.954	2.604	2.258	1.911
x1 = 0.2768	1085.26	1081.43	1077.51	1073.27	1069.16	3.537	3.162	2.786	2.413	2.04
x1 = 0.3074	1088.96	1085.02	1080.99	1076.81	1072.4	3.656	3.269	2.881	2.496	2.11
x1 = 0.3335	1091.44	1087.45	1083.41	1079.21	1074.68	3.714	3.322	2.93	2.54	2.149
x1 = 0.3638	1093.61	1089.68	1085.47	1081.11	1076.63	3.735	3.344	2.953	2.562	2.172
x1 = 0.3906	1095.11	1091.09	1086.84	1082.43	1077.78	3.717	3.331	2.946	2.56	2.175
x1 = 0.4412	1097.04	1092.88	1088.48	1084.05	1079.52	3.606	3.241	2.876	2.508	2.142
x1 = 0.5193	1098.34	1094.01	1089.48	1085.1	1080.42	3.312	2.992	2.671	2.348	2.025
x1 = 0.5677	1098.66	1094.24	1089.61	1085.12	1080.33	3.102	2.81	2.519	2.227	1.934
x1 = 0.6195	1098.86	1094.29	1089.61	1085.01	1080.01	2.883	2.62	2.355	2.097	1.835
x1 = 0.6813	1098.85	1094.13	1089.3	1084.66	1079.61	2.656	2.421	2.183	1.958	1.727
x1 = 0.7595	1098.49	1093.75	1088.81	1083.92	1078.92	2.432	2.225	2.009	1.818	1.616
x1 = 0.8095	1098.02	1093.29	1088.4	1083.63	1078.58	2.32	2.129	1.926	1.749	1.559
x1 = 0.8856	1097.3	1092.53	1087.58	1082.75	1077.68	2.175	2.006	1.818	1.659	1.486
x1 = 0.9407	1096.83	1091.95	1086.95	1082.04	1076.93	2.08	1.92	1.746	1.599	1.438
x1 = 0.9781	1096.41	1091.56	1086.54	1081.71	1076.53	2.024	1.863	1.697	1.558	1.409
x1 = 1	1096.29	1091.44	1086.41	1081.59	1076.46	1.996	1.836	1.669	1.535	1.393
